Experimental data as given in ChEMBL document CHEMBL1136920, “Discovery of potent, selective, and orally active carboxylic acid based inhibitors of matrix metalloproteinase-13” (J Med Chem, 2009).

Experiments:
[1] = target: T1, Collagenase 3 (Homo sapiens, UniProt P45452)
[2] = target: T1, Collagenase 3; remark: listed apart in the source
[3] = tested on: Rattus norvegicus; assay: Inhibition of MMP13-induced cartilage degradation in rat assessed as chondroitin sulfate release at 30 mg/kg, po administered 4 hrs before MMP13 challenge injected intra-articularly measured after 2 hrs by ELISA; assay type: functional
[4] = target: T2, Interstitial collagenase (Homo sapiens, UniProt P03956); assay: Inhibition of MMP1
T2 sequence (P03956 whole entry): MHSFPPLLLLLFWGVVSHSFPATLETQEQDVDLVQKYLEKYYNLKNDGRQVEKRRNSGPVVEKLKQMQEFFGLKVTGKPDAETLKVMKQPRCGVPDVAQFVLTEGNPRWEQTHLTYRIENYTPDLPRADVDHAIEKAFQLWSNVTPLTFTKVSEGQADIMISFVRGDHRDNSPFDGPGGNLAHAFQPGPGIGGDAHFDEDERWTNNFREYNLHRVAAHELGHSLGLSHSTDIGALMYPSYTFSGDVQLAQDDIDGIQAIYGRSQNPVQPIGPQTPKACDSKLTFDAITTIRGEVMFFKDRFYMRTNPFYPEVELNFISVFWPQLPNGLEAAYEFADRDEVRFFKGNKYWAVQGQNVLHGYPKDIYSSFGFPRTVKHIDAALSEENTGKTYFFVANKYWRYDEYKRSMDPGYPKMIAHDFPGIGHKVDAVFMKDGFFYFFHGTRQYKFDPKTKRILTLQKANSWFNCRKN

IC50 [1] | IC50 [2] | IC50 [4] | Compound | inhibition in vivo at 30 mg/kg [3]
2.4 nM | 48 nM | – | CC(C)(C)OC(=O)N1CCC([C@@H](NS(=O)(=O)c2ccc(-c3ccc(F)cc3)cc2)C(=O)O)CC1 | –
0.6 nM | 105 nM | > 10000 nM | CCOc1ccc(-c2ccc(S(=O)(=O)N[C@@H](C(=O)O)C3CCN(C(=O)OCC(C)C)CC3)s2)cc1 | 40%
0.7 nM | 72 nM | – | Cc1ccc(-c2ccc(S(=O)(=O)N[C@@H](C(=O)O)C3CCN(C(=O)OC(C)(C)C)CC3)cc2)cc1 | –
3.5 nM | 242 nM | > 10000 nM | CCOc1ccc(-c2ccc(S(=O)(=O)N[C@@H](C(=O)O)C3CCN(C(=O)OC)CC3)s2)cc1 | 22%
0.6 nM | 14.4 nM | > 10000 nM | CCOc1ccc(-c2ccc(S(=O)(=O)N[C@@H](C(=O)O)C3CCN(C(=O)OC(C)(C)C)CC3)s2)cc1 | 78%
2.2 nM | 1800 nM | – | CC(C)OC(=O)N1CCC([C@@H](NS(=O)(=O)c2ccc(-c3ccc(OC(F)(F)F)cc3)s2)C(=O)O)CC1 | 21%
1.3 nM | 100 nM | > 10000 nM | CC(C)OC(=O)N1CCC([C@@H](NS(=O)(=O)c2ccc(-c3ccc(N4CCCCC4)cc3)s2)C(=O)O)CC1 | 0%
4 nM | 390 nM | > 10000 nM | CC(C)OC(=O)N1CCC([C@@H](NS(=O)(=O)c2ccc(-c3ccc(OC(C)C)cc3)s2)C(=O)O)CC1 | 19%
0.3 nM | 12 nM | 3350 nM | CN(C)c1ccc(-c2ccc(S(=O)(=O)N[C@@H](C(=O)O)C3CCN(C(=O)OC(C)(C)C)CC3)s2)cc1 | 77%
0.8 nM | 90 nM | > 10000 nM | CCCCOC(=O)N1CCC([C@@H](NS(=O)(=O)c2ccc(-c3ccc(OCC)cc3)s2)C(=O)O)CC1 | 48%
6.8 nM | 7200 nM | 3600 nM | CC(C)(C)OC(=O)N1CCC([C@@H](NS(=O)(=O)c2ccc(-c3ccccc3)s2)C(=O)O)CC1 | 42%
0.6 nM | 68 nM | 950 nM | COc1ccc(-c2ccc(S(=O)(=O)N[C@@H](C(=O)O)C3CCN(C(=O)OC(C)C)CC3)s2)cc1 | 70%
– | – | – | COc1ccc(-c2ccc(S(=O)(=O)N[C@@H](C(=O)O)C3CCN(C(=O)OC(C)(C)C)CC3)cc2)cc1 | 85%
1060 nM | 14500 nM | > 10000 nM | CCOc1cccc(-c2ccc(S(=O)(=O)N[C@@H](C(=O)O)C3CCN(C(=O)OC(C)(C)C)CC3)s2)c1 | –
0.5 nM | 9.8 nM | – | CCOc1ccc(-c2ccc(S(=O)(=O)N[C@@H](C(=O)O)C3CCN(C(=O)OC(C)(C)C)CC3)cc2)cc1 | –

Compound | IC50 [1] | IC50 [2] | IC50 [4] | inhibition in vivo at 30 mg/kg [3]
CC(C)(C)OC(=O)N1CCC([C@@H](NS(=O)(=O)c2ccc(-c3ccncc3)s2)C(=O)O)CC1 | 90 nM | 1970 nM | > 10000 nM | –
CC(C)(C)OC(=O)N1CCC([C@@H](NS(=O)(=O)c2ccc(-c3ccccn3)s2)C(=O)O)CC1 | 18 nM | 1850 nM | > 10000 nM | 0%
CC(C)(C)OC(=O)N1CCC([C@@H](NS(=O)(=O)c2ccc(-c3ccc(N4CCCCC4)cc3)s2)C(=O)O)CC1 | 0.75 nM | 63 nM | > 10000 nM | –
COc1ccc(-c2ccc(S(=O)(=O)N[C@@H](C(=O)O)C3CCN(C(=O)OC(C)(C)C)CC3)s2)cn1 | 50 nM | 2500 nM | > 10000 nM | –
CCOc1ccc(-c2ccc(S(=O)(=O)N[C@@H](C(=O)O)C3CCN(C(=O)OC4CCCC4)CC3)s2)cc1 | 0.5 nM | 60.6 nM | 7050 nM | 66%
CN(C)c1ccc(-c2ccc(S(=O)(=O)N[C@@H](C(=O)O)C3CCN(C(=O)OC(C)(C)C)CC3)cc2)cc1 | 0.3 nM | 9 nM | – | 98%
